Data from PubChem BioAssay (NCI).
Values joined by “and” are separate entries in the source; they are usually repeats but may differ in a detail not shown here. Equal values may be shown once.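 Grown in 96-well plates, cells were treated for 48 hours with each compound at five concentrations. Insufficient inhibition: endpoint recorded as highest concentration tested. At the GI50, growth is halved. At the TGI there is no net growth.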

Key:
Experiment in all cases: inhibition of tumour cell growth, NCI panel, 48 h
NCI-H522 lung = test system: NCI-H522 lung
SNB-19 CNS = test system: SNB-19 CNS
SN12C renal = test system: SN12C renal
SW-620 colon = test system: SW-620 colon
HCT-15 colon = test system: HCT-15 colon
HOP-92 NSCLC = test system: HOP-92 NSCLC
OVCAR-3 ovarian = test system: OVCAR-3 ovarian
NCI-H460 lung = test system: NCI-H460 lung
A549 NSCLC = test system: A549 NSCLC
MDA-MB-231 breast = test system: MDA-MB-231 breast

| Structure (SMILES) | TGI (NCI-H522 lung) | TGI (SNB-19 CNS) | TGI (SN12C renal) | TGI (SW-620 colon) | TGI (HCT-15 colon) | TGI (HOP-92 NSCLC) | TGI (OVCAR-3 ovarian) | TGI (NCI-H460 lung) | TGI (A549 NSCLC) | GI50 (MDA-MB-231 breast) | TGI (MDA-MB-231 breast) | GI50 (HOP-92 NSCLC) | GI50 (OVCAR-3 ovarian) | GI50 (A549 NSCLC) | GI50 (SN12C renal) | GI50 (HCT-15 colon) | GI50 (NCI-H460 lung) | GI50 (SNB-19 CNS) | GI50 (SW-620 colon) | GI50 (NCI-H522 lung) |
| --- | --- | --- | --- | --- | --- | --- | --- | --- | --- | --- | --- | --- | --- | --- | --- | --- | --- | --- | --- | --- |
| N#Cc1cccnc1Cl | > 100 µM | > 100 µM | > 100 µM | > 100 µM | > 100 µM | > 100 µM | > 100 µM | > 100 µM | > 100 µM |  |  |  |  |  |  |  |  |  |  |  |
| Cn1c2ccccc2c(=O)c2ccc(Cl)cc21 |  | 4 µM | > 10 µM | > 10 µM | > 10 µM | > 10 µM | > 10 µM |  | > 10 µM |  |  |  |  |  |  |  |  |  |  |  |
| COc1cc(/C=C/c2cc(/C=C/c3ccc(O)c(OC)c3)n(C(=O)Nc3ccc(C)cc3C)n2)ccc1O |  |  |  |  |  | 3.71 µM | 1.03 µM |  | 3.2 µM | 0.613 µM | 6.01 µM | 0.576 µM | 0.327 µM | 0.43 µM |  |  |  |  |  |  |
| CCCCCCCCCCCCCCCCCCOc1ccccc1CC(=O)OCC[N+]1(C)CCCC1 |  |  | 4.27 µM |  | 21 µM | 3.37 µM | 3.13 µM | 4.65 µM |  | 1.7 µM | 3.55 µM | 1.22 µM | 1.63 µM |  | 1.94 µM | 4.1 µM | 2.15 µM |  |  |  |
| CN(CCC#N)c1ccc(/C=C(\C#N)c2ccc(Br)cc2)cc1 |  | > 100 µM |  | > 100 µM | > 100 µM | > 100 µM |  |  |  | 4.72 µM | > 100 µM | 2.52 µM |  |  |  | 2.9 µM |  | > 100 µM | 3.87 µM |  |
| OCc1ccc(C2CC(c3ccco3)=NN2c2ccccc2)o1 (configuration not stated) | > 100 µM | > 100 µM | > 100 µM | > 100 µM | > 100 µM |  | > 100 µM | > 100 µM | > 100 µM |  |  |  |  |  |  |  |  |  |  |  |
| S=C1OC2CCCC[C@H]2O1 (some centres not stated) | > 100 µM | > 100 µM | > 100 µM | > 100 µM |  | > 100 µM | > 100 µM | > 100 µM | > 100 µM |  |  |  |  |  |  |  |  |  |  |  |
| O=C1CCCC[C@H]1[C@H]1CCC[C@@H]([C@H]2CCCCC2=O)C1=O | > 100 µM | > 100 µM | > 100 µM | > 100 µM | > 100 µM | > 100 µM | > 100 µM | > 100 µM | > 100 µM |  |  |  |  |  |  |  |  |  |  |  |
| O=C(NCO)NCOCn1c(=O)n(CO)c(=O)n(CO)c1=O |  | > 31.6 µM | > 100 µM | 56.4 µM | 60.9 µM |  | > 100 µM | > 94.8 µM | > 100 µM |  |  |  |  |  |  |  |  |  |  |  |
| Cc1ccc(S(=O)(=O)C(C#N)c2nc3ccccc3nc2-n2ccnc2)cc1 (configuration not stated) | > 100 µM | > 100 µM | > 100 µM |  | > 100 µM | > 100 µM | > 100 µM | > 100 µM | > 100 µM |  |  |  |  |  |  |  |  |  |  |  |
| COc1ccc(OC)c2c(C(=O)O)c(Cc3ccccc3)ccc12 | > 100 µM | > 100 µM | > 100 µM | > 100 µM | > 100 µM |  | > 100 µM | > 100 µM | > 100 µM |  |  |  |  |  |  |  |  |  |  |  |
| O=C1CC2CCCC23CC2(CCN13)OCCO2 (configuration not stated) | > 100 µM | > 100 µM | > 100 µM | > 100 µM |  | > 100 µM | > 100 µM | > 100 µM | > 100 µM |  |  |  |  |  |  |  |  |  |  |  |
| Clc1ccc2c(c1)-c1c3c(nn1-c1ccccc1)-c1ccccc1SC3O2 (configuration not stated) | 87.5 µM |  |  | > 100 µM |  | > 100 µM | > 100 µM | > 100 µM | > 100 µM |  |  |  |  |  |  |  |  |  |  |  |
| C1CCC([PH+](C2CCCCC2)C2CCCCC2[PH+](C2CCCCC2)C2CCCCC2)CC1.O=C(C1[CH-]CCCC1)C1CCCC[N-]1.[Au] (configuration not stated) |  |  | 2.81 µM |  |  | 0.89 µM | 1.19 µM |  |  | 0.223 µM | 0.713 µM | 0.22 µM | 0.272 µM |  | 0.262 µM |  |  |  |  |  |
| COc1c(C(C)C)cc2c3c1OC(=O)[C@@]31CCCC(C)(C)C1CC2 (some centres not stated) | 38.7 µM | 51.8 µM | > 100 µM | > 100 µM | > 100 µM |  | 83.3 µM | > 100 µM | 60.1 µM |  |  |  |  |  |  |  |  |  |  |  |
| CC(=O)O[C@]12CCCCCC1C1(O)C(O)CCCC[C@H]12 (some centres not stated) | > 100 µM | > 100 µM | > 100 µM | > 100 µM | > 100 µM |  |  | > 100 µM | > 100 µM |  |  |  |  |  |  |  |  |  |  |  |
| c1ccc(C2Nc3ccccc3C3OCCCC23)cc1 (configuration not stated) |  | > 100 µM | > 100 µM | > 100 µM | > 100 µM | 70.5 µM |  |  | > 100 µM |  |  |  |  |  |  |  |  |  |  |  |
| O=C(O)[C@H](NS(=O)(=O)c1ccc([N+](=O)[O-])cc1)c1ccccc1 | > 100 µM | > 100 µM | > 100 µM | > 100 µM | > 100 µM | > 100 µM | > 100 µM | > 100 µM | > 100 µM |  |  |  |  |  |  |  |  |  |  |  |
| CCCSc1nc(COC(=O)NC)c(COC(=O)NC)n1C | 45.1 µM and > 100 µM | > 100 µM | > 100 µM | > 100 µM | > 100 µM | > 100 µM | > 100 µM | > 100 µM | > 100 µM |  |  |  |  |  |  |  |  |  |  | 22.1 µM and 55.5 µM |
| CCOC(=O)c1ccc(C)c(N=NN(C)C)c1 | > 100 µM | > 100 µM | > 100 µM | > 100 µM | > 100 µM | > 100 µM | > 100 µM | > 100 µM | > 100 µM |  |  |  |  |  |  |  |  |  |  |  |
| O=C1CCC(O)=C1N=Nc1ccccc1 |  | > 100 µM | > 100 µM | > 100 µM | > 100 µM | > 100 µM | > 100 µM | > 100 µM | > 100 µM |  |  |  |  |  |  |  |  |  |  |  |
| CC(C)(C)c1cc(C(O)(C(F)(F)F)C(F)(F)F)c2c(c1)C(C(F)(F)F)(C(F)(F)F)OC(C(C)(C)C)N2 (configuration not stated) | 7.39 µM | 19.3 µM | 14.6 µM | 13.8 µM | 11.7 µM |  | 9.43 µM | 9.01 µM | 13.6 µM |  |  |  |  |  |  |  |  |  |  |  |
| COc1cc2[nH]c(C(=O)c3cc(OC)c(OC)c(OC)c3)c(N)c2cc1C#CC1CC1 |  | > 100 µM | > 100 µM | > 100 µM | > 100 µM | 94.5 µM | 5.74 µM | > 100 µM | > 100 µM | 3.9 µM | > 100 µM | 0.622 µM | 1.53 µM | 6.65 µM | 7.69 µM | 2.3 µM | 3.55 µM | 5.85 µM | 2.9 µM |  |
| CC(=O)C(=CN1CCN(C(=O)c2ccco2)C1=S)C(C)=O |  | 63.6 µM | 7.11 µM | 31.3 µM | 5.55 µM | 46 µM | 35.9 µM | 3.42 µM | 32.7 µM | 2.62 µM | 6.96 µM | 11.7 µM | 11.4 µM | 11.2 µM | 2.57 µM | 2.16 µM | 1.5 µM | 30.1 µM | 14.6 µM |  |
